Measured values published in patent US20240219374A1, “A Triple Co-Culture System for Drug Screening of Patient-Derived Cancer Cells and Methods of Use” (OncoPrecision Corporation, priority 2021, published 2024).

Key:
[1] = tested on: TC cells (human bone marrow stroma cell line HS-5, Cayenne-RFP); assay: Triple co-culture drug test (DART), flow cytometry: Tox Control cells; type: cell-based; conditions: for cytotoxic effect on the TC cells: Example 8, FIG. 9A, Panobinostat 5 nM, Cytarabine 22 nM + Daunorubicine 41 nM, Venetoclax 1.6 μM
From the text: DMSO treated wells were used as controls.

[2] = tested on: PDC cells from patient OP #23 (acute myeloid leukemia); assay: Triple co-culture drug test (DART), flow cytometry: PDC cells of patient OP #23; conditions: for cytotoxic effect on the PDC cells: Example 8, FIG. 9A, 6 days, Panobinostat 5 nM, Cytarabine 22 nM + Daunorubicine 41 nM, Venetoclax 1.6 μM, PDC:SC:TC 10:1:1
PDCs from an AML patient = assay: Magnetically printed 3D tumoroid triple co-culture, flow cytometry: PDCs; type: cell-based, human; conditions: 3D tumoroids; Cytarabine 200 nM; 6 days; 10,000 PDC, 3,000 SC, 8,000 TC cells
Method: (§1) The 3D tumoroid was formed with or without extracellular matrix (ECM) embedded in culture media. […] On day 1, when the tumoroids were in a fully compact 3D configuration, the multiwell plates containing the tumoroid replicas (1 per well) were subjected to a matrix of treatments, including mono-drugs and combinations.
(§2) Magnetically printed 3D patient-micro-avatars (PMAs) using PDCs from an AML patient were prepared. PDCs from a bone marrow aspirate were processed by Ficoll-Paque to isolate the PBMC fraction, which was printed into 3D tumoroids in co-culture with SC cells and TC cells. Particularly, 10,000 PDC cells were mixed with 3,000 SC cells, and 8,000 TC cells.
(§3) 3D tumoroids so formed were treated for 6 days with vehicle or Cytarabine at 200 nM. […] At the end of the treatment, tumoroids were analyzed first by florescence microscopy (left panel of FIG. 12B). The tumoroids were subsequentially disaggregated mechanically and analyzed by flow cytometry to quantify the surviving fraction of PDCs, SC cells, and TC cells (right panel of FIG. 12B).

SC cells = assay: Magnetically printed 3D tumoroid triple co-culture, flow cytometry: SC cells; type: cell-based; conditions: 3D tumoroids; Cytarabine 200 nM; 6 days
Method: as §1, §2, §3

TC cells = assay: Magnetically printed 3D tumoroid triple co-culture, flow cytometry: TC cells; type: cell-based; conditions: 3D tumoroids; Cytarabine 200 nM; 6 days
Method: as §1, §2, §3

Row | Structure (SMILES) | cytotoxic effect on the TC cells ([1]; 6 days) | cytotoxic effect on the PDC cells [2] | cytotoxic activity on the TC cells ([1]; Example 9, FIG. 9C, four doses, 6 days) | effects on the TC cells ([1]; Example 12, FIG. 11B) | cytotoxic effects on the PDC cells ([2]; Example 12, FIG. 11B, top drugs alone or combined at the lowest dose, standard care in parallel) | cytotoxic effects on the cancer cells (PDCs) (PDCs from an AML patient) | cytotoxic effects on the SC cells (SC cells) | cytotoxicity on the TC cells (TC cells)
1 | Cc1[nH]c2ccccc2c1CCNCc1ccc(/C=C/C(=O)NO)cc1 [Panobinostat] | neither the PDC cells nor the TC cells showed a response | neither the PDC cells nor the TC cells showed a response |  |  |  |  |  | 
2 | CC1(C)CCC(CN2CCN(c3ccc(C(=O)NS(=O)(=O)c4ccc(NCC5CCOCC5)c([N+](=O)[O-])c4)c(Oc4cnc5[nH]ccc5c4)c3)CC2)=C(c2ccc(Cl)cc2)C1 [Venetoclax] | no cytotoxic effect | strong cytotoxic effect | no cytotoxic activity | exerted effects | cytotoxic effects |  |  | 
3 | Nc1ccn([C@@H]2O[C@H](CO)[C@@H](O)[C@@H]2O)c(=O)n1 [cytarabine, Cytarabine] |  |  |  |  |  | strong cytotoxic effects | strong cytotoxic effects | moderate cytotoxicity
